Reference: ChEMBL document CHEMBL1201862, “PubChem BioAssay data set” (2004)
Activity calls are given as the source filed them.

Experiments:
[1] = target: T1, Ubiquitin-conjugating enzyme E2 N (Homo sapiens, UniProt P61088); format: functional
T1 sequence (P61088 whole entry): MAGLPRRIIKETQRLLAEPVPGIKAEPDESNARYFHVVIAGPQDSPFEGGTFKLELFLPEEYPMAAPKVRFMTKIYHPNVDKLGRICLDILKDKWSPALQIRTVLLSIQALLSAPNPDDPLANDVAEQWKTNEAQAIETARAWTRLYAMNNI

Bcl-2-related protein A1 = target: T2, Bcl-2-related protein A1 (Mus musculus, UniProt Q07440); format: functional;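 further: confirmatory dose–response counterscreen on Bfl-1, used to check hits from a UBC13 polyubiquitin inhibitor campaign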
T2 sequence (Q07440 whole entry): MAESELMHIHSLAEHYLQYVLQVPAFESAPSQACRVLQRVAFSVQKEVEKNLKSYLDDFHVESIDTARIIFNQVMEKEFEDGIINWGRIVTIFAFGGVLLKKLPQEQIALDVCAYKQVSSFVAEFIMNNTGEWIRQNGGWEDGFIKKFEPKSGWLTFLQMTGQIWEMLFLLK

[2] = target: T1, Ubiquitin-conjugating enzyme E2 N; format: functional; remark: listed apart in the source
[3] = target: G-protein coupled receptor 55 (Homo sapiens, UniProt Q9Y2T6); experiment: blockers of GPR55 signalling, imaged – imaging, image-based, counter-screen for GPR35 antagonist project, SAR follow-up (AID 2397); format: functional
[4] = viability loss of HMLE_sh_eGFP cells – cell-based, luminescence, counter-screen for HMLE_sh_ECad selective toxicity project, dose response (AID 463074); format: functional, Homo sapiens;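 further: HMLE human mammary epithelial cells expressing control shRNA against eGFP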
[5] = Luminescence Cell-Based Dose Retest to Confirm Inhibitors of Cancer Stem Cells. [Related pubchem assays (depositor defined):AID2717, AID2721]; format: functional; conditions: Homo sapiens
[6] = viability loss in HEK293 cells – cell-based, plate reader, cherry-picked samples, cytotoxicity control, dose response (AID 743446); format: functional
[7] = toxicity toward HepG2 liver cells – cell-based, plate reader, cherry-pick, antagonist series, cytotoxicity control, dose response (AID 743416); format: functional
[8] = target: T3, Heat shock factor protein 1 (Mus musculus, UniProt P38532); experiment: decrease of HSF1-responsive luciferase luminescence – cell-based, NIH3T3, dose retest, confirmation (AID 2382); format: functional;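 further: NIH3T3 fibroblasts with HSF1-driven luciferase reporter stressed by proteasome inhibitor MG132; luminescence from HSF1-driven luciferase expression after 8 hours of MG132 stress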
T3 sequence (P38532 whole entry): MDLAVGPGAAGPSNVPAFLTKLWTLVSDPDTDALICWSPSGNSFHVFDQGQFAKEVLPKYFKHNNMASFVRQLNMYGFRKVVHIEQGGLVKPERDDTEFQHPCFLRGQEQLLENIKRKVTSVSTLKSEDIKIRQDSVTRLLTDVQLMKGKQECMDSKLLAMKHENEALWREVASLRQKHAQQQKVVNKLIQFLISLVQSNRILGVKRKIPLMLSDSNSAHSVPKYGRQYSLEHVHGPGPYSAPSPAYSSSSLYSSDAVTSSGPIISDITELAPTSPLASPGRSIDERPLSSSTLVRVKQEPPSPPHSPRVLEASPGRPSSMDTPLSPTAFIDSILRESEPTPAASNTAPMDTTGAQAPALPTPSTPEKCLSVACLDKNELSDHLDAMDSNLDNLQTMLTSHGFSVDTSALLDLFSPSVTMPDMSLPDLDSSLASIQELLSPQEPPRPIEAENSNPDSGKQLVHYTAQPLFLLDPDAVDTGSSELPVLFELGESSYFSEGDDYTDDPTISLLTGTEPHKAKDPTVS

BJ [9] = experiment: BJ-TERT-LT-ST fibroblast viability loss – cell-based, RAS-independent, luminescence, dose response (AID 1935); format: functional; conditions: Homo sapiens;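 further: BJ fibroblasts immortalized with TERT plus LT and ST oncogenes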
[10] = loss of viability in HepG2 cells – cell-based, CellTiter-Glo, cherry-picked, cytotoxicity control for Shn3 inhibitor project, dose response (AID 624134); format: functional
[11] = HEK-293T viability loss, compound-treated – cell-based, uHTS hits, cytotoxicity control for B/T-cell NF-kB inhibitor project, dose response (AID 489019); format: functional;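 further: IC50 reflects cytotoxicity as loss of cell viability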
BJ [12] = experiment: BJ-TERT fibroblast viability loss – cell-based, RAS-independent, luminescence, dose response (AID 1933); format: functional; conditions: Homo sapiens
[13] = DRD fibroblast viability loss – cell-based, non-viral oncogenic, luminescence, dose response (AID 1934); format: functional; conditions: Homo sapiens
[14] = non-specific 3'UTR reporter inhibition in Clone20-Shn3RL – cell-based, Renilla luciferase, cherry-picked, counter-screen for Shn3 inhibitor project, dose response (AID 624133); format: functional
Jurkat = experiment: blockers of NF-kB activation in T cells – Jurkat, luciferase reporter, luminescence, B- and T-cell, dose response (AID 489004); format: functional, cell-based; conditions: Homo sapiens;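 further: NF-kB luciferase reporter Jurkat cells stimulated with PMA plus ionomycin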
[15] = Luminescence Cell-Based Dose Confirmation HTS to Identify Inhibitors of Platelet Dense Granule Release. [Related pubchem assays: 1663 (Primary HTS), 1678 (Summary of Project)]; format: functional
[16] = blockers of bursicon-stimulated LGR2 cAMP reporter – cell-based, HEK293, CRE-luciferase reporter, cherry pick, set 2, dose response (AID 743343); format: functional;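 further: transfected cells were stimulated with diluted bursicon conditioned medium after compound addition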
Protein skinhead-1 = target: T4, Protein skinhead-1 (Caenorhabditis elegans, UniProt P34707); format: functional
T4 sequence (P34707 whole entry): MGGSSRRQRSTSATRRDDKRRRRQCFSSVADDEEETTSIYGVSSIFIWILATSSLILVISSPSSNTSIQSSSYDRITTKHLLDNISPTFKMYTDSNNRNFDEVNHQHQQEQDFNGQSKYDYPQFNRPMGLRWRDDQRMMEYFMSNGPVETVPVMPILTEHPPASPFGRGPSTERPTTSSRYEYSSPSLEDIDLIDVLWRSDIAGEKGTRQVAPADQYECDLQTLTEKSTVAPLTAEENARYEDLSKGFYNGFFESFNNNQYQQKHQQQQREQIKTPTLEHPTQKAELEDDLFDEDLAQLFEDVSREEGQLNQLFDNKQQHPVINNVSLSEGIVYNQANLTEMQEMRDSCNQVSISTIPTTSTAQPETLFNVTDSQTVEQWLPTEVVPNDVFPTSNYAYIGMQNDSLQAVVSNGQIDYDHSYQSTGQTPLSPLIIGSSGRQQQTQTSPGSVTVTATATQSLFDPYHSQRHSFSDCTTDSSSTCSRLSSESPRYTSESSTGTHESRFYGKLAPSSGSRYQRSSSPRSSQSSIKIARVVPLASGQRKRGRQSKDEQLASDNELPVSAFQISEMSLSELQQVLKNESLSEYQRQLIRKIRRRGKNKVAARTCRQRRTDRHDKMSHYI

[17] = blockade of melanocortin 4 receptor signaling – cell-based, plate reader, cherry pick, counter-screen for LGR2 antagonist project, dose response (AID 743444); format: functional;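 further: transfected HEK 293 cells stimulated with alpha-MSH peptide; potency of inhibitors of the alpha-MSH evoked signal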
[18] = reduction of Shn3 3'UTR-driven luciferase in osteoblasts – cell-based, Clone20 osteoblasts, firefly luciferase, cherry-picked, dose response (AID 624132); format: functional;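 further: firefly luciferase luminescence from reporter carrying the Shn3 3'UTR in osteoblasts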
BJ [19] = experiment: growth inhibition of engineered Ras-driven BJ cells – cell-based, alamar blue fluorescence, cherrypicked samples, dose response (AID 2631); format: functional; conditions: Homo sapiens;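 further: confirmatory dose-response assay in RAS-dependent BJ fibroblasts engineered with TERT, LT and ST, with cytotoxicity read by fluorescence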
BJ [20] = experiment: cells; format: functional, cell-based; conditions: Homo sapiens
[21] = Luminescence-based counterscreen assay for KLF5 inhibitors: dose response cell-based high throughput screening assay to identify cytotoxic compounds using the IEC-6 intestinal epithelial cell line. [Related pubchem assays: 1700 (Primary screen.), 1834 (Confirmation screen.), 1858 (Summary AID.), 1905 (Counterscreen.)]; format: functional
[22] = A549 cell cytotoxicity, dose response, cytotoxicity control, plate reader, cherry-pick, antagonist series (AID 743412); format: functional, cell-based

Sequence of G-protein coupled receptor 55 (Q9Y2T6 whole entry): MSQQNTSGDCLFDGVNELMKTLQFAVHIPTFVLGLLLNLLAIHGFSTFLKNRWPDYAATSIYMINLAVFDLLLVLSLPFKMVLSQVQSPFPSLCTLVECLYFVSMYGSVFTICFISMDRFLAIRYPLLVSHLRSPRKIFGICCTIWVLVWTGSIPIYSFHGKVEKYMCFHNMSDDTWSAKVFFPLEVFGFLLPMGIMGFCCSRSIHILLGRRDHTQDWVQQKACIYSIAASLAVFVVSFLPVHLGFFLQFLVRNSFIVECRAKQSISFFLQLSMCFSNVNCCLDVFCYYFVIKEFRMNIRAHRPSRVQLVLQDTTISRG

For `O=C(NNC(=O)c1nn(-c2ccc(F)cc2)ccc1=O)c1ccc(C(F)(F)F)cc1`, which IC50 [1] is on record?
Its IC50 is 10.2 µM (active).

And the IC50 (Bcl-2-related protein A1)?
Its IC50 is > 20 µM (inactive).

And the IC50 [2]?
The IC50 was 16.7 µM (active).

For `Clc1ccccc1Cn1ncc2c(N3CCN(c4ccccc4)CC3)ncnc21`, which IC50 [3] is on record?
The IC50 was > 32 µM (inactive).

Which AC50 [4] does the source give for `CN(C)/N=C/c1ccc(Sc2ccc([N+](=O)[O-])cc2[N+](=O)[O-])o1` here?
The AC50 was 30.2 µM (active).

What about the AC50 [5] of the same compound?
Its AC50 is 22.5 µM (active).

Which AC50 [6] does the source give for `c1ccc(-c2ccc(-c3nc(-c4ccccn4)no3)cc2)cc1` here?
Its AC50 is 6.22 µM (active).

And the AC50 [7]?
The AC50 was 4.67 µM (active).

And the EC50 [8]?
The EC50 was < 0.16 µM (active).

What about the EC50 (BJ [9]) of the same compound?
The EC50 was 9.38 µM (inconclusive).

And the AC50 [10]?
The AC50 was 5.26 µM (active).

And the IC50 [11]?
Its IC50 is > 80 µM (inactive).

What about the EC50 (BJ [12]) of the same compound?
The EC50 was 3.64 µM (active).

And the EC50 [13]?
Its EC50 is 3.27 µM (active).

And the AC50 [14]?
Its AC50 is 32.7 µM (active).

What about the IC50 (Jurkat) of the same compound?
The IC50 was 1.17 µM (active).

And the EC50 [15]?
Its EC50 is 0.189 µM (active).

And the AC50 [16]?
The AC50 was 0.236 µM (active).

What about the IC50 (Protein skinhead-1) of the same compound?
The IC50 was > 100 µM (inactive).

What about the AC50 [17] of the same compound?
Its AC50 is 0.261 µM (active).

And the AC50 [18]?
The AC50 was 3.75 µM (active).

What about the EC50 (BJ [19]) of the same compound?
The EC50 was > 133 µM (inactive).

And the EC50 (BJ [20])?
Its EC50 is 1.69 µM (active).

And the IC50 [21]?
Its IC50 is 9.09 µM (active).

And the AC50 [22]?
Its AC50 is 5.48 µM (active).
